Measured values reported in patent US4636496A, “Compositions inhibiting murine MXT ductal carcinoma” (Wayne State University, priority 1986, dated 1987).
“Also recorded” adds a separate entry of the source.

What was measured:
[1] = test system: Mammary Tumors Induced by Dimethylbenz(a)anthracene; experiment: Effects on mammary tumors induced by dimethylbenz(a)anthracene (DMBA), s.c. injection for 35 days; assay type: in vivo, Sprague-Dawley rats; conditions: for Mean tumor volume / Mean tumor no. (no. tumors/rat): 24 mg/kg s.c., 35 days, 7-10 rats/group, mean ± S.D.; for Mean tumor volume: control (None) 1.48 ± 2.09; for Mean tumor no. (no. tumors/rat): control (None) 3.30 ± 2.60; for significance of treatment results (in words): compared to control tumors, Student's t test
Description: Chemicals and Reagents. Estrone, 17-beta-estradiol 3-benzoate, estrone sulfate, aryl sulfatase (EC 3.1.6.1), beta-glucuronidase (EC3.2.1.31), 7,12-dimethylbenz(a)anthracene (DMBA), and 5-fluorouracil were obtained from Sigma Chemical Co. (St. Louis, Mo.). 4-Nitroestrone 3-methyl ether, 4-nitroestrone, and 2,4-dinitroestrone were synthesized by the procedures of Tomson et al., supra.
Animals. Virgin female Sprague-Dawley rats (The Charles River Co., Wilmington, Mass.) were housed 4 to 6/cage in a light (12 hr/day)--and temperature (24°)--controlled room and given a diet of Wayne Lab-Blox laboratory chow (Allied Mills, Inc., Chicago, Ill.) and tap water ad libitum. At 50 days of age, rats were intubated with DMBA (10 mg/100 g body weight) dissolved in sesame oil (20 mg/ml). Beginning at Day 45 after intubation, all animals were weighed and palpated once per week. Tumor volumes were calculated by measuring 2 diameters with a caliper and the third dimension with a ruler, then by substituting values:
where a, b, and c are the 3 different diameters of the tumor. The agreement of the in vivo tumor volume and measurements of excised tumors identified at necropsy was 95 to 99%. When about 75% of rats had palpable tumors (81 to 92 days after intubation), the animals were randomized, excluding rats with tumors larger than 2.00 ml and rats with more than 5 tumors/animal. The mean initial tumor volumes in control and treated groups ranged between 0.4 and 0.9 cu cm over the various experiments. When necessary, ovariectomy (ether anesthesia) was performed on the first or second day after the initiation of the study. The significance of difference between treatment groups was examined by Student's t test.
Estrogen derivatives (>99% pure by thin-layer chromatography) were injected s.c. daily (Monday to Friday). After distribution in SSV (steroid-suspending vehicles, 0.9% NaCl solution with 0.5% sodium carboxymethyl-cellulose-7, 0.4% polysorbate; and 0.9% benzylalcohol, obtained from the National Cancer Institute), the steroids (20 mg/ml) were administered at 0.12 to 54 mg/kg body weight. The suspension was sonicated before use to achieve uniform distribution. 17-Beta-estradiol 3-benzoate was dissolved directly in sesame oil to a concentration of 2.5 mg/ml; 5 fluorouracil was dissolved in water (25 mg/ml). The control group was given injections of SSV or sesame oil alone.
The toxicity of all antitumor agents was determined by comparing body weights of treated and control animals.
Postmortem Examination and Histopathology of Tumors. Rats were selected for colchicine injections (2 mg/kg body weight) 2 hr prior to necropsy to obtain an accurate measurement of mitotic indices of tumors. Animals were sacrificed with CO2 gas or bled to death via the abdominal aorta. Tumors and tissues were removed and preserved in 10% neutral buffered formalin for histopathological examination. Gross anomalies of abdominal, thoracic, and cranial cavities were recorded. Uteri were removed, trimmed, and weighed fresh. Ovaries, adrenals, and pituitaries were trimmed and weighed after fixation.
Histopathological observations on hematoxylin-and iosin-stained tumor and organ sections were performed, and comparisons between the control and treated groups were carried out using computer analysis. The microscopic parameters used to judge the degree of anaplasia in DMBA-induced mammary neoplasms, when treated animals were compared to controls, were: (a) the type of epithelium or mammary tissue involved; (b) the degree of encapsulation of the neoplasm; (c) the number of mitotic figures observed; (d) the extent of stroma invasions of the neoplastic epithelium; (e) the severity of lymphocytic infiltration of the neoplasms; and (f) the regressive, degenerative, or vacuolative changes in the neoplastic epithelium. […] Histological examination was performed on all mammary tumors. […]

[2] = biological target: T1, Porcine Endometrial Estrogen Sulfotransferase (Sus scrofa, UniProt A0A286ZW98); experiment: Inhibition of porcine endometrial estrogen sulfotransferase; assay type: biochemical; conditions: compared within Table III
T1 construct: from tissue; host or cells: porcine endometrium
T1 sequence (A0A286ZW98 1-296): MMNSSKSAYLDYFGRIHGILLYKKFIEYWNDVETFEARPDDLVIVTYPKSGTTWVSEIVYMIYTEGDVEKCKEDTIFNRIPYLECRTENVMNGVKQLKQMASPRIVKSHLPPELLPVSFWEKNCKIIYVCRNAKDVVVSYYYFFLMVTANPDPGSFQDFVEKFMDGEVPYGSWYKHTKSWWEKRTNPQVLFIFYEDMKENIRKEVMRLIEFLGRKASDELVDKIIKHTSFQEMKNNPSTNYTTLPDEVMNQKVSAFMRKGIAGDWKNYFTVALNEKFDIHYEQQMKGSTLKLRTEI
Method: Compounds prepared in the foregoing examples were evaluated as inhibitors of porcine estrogen sulfotransferase as taught by Rozhin et al., J. Biol. Chem., 252:7214-7220 (1977) and Brooks et al., U.S. Pat. No. 4,496,555.

[3] = test system: MXT Mouse Mammary Ductal Carcinoma; experiment: Subcutaneous treatment of early stage, hormone-dependent MXT mouse mammary ductal carcinoma; assay type: in vivo
[4] = test system: hormone dependent mammary tumors, induced by 7,12-dimethylbenz(a)anthracene; conditions: cited from earlier work

Structure (SMILES): COc1c(Br)cc2c(c1Br)CC[C@@H]1[C@@H]2CC[C@]2(C)C(=O)CC[C@@H]12 [2,4-Dibromoestrone 3-methyl ether, 2,4-dibromoestrone 3-methyl ether]
- Mean tumor volume [1]: 1.24 ± 1.07 cu cm
- Mean tumor no. (no. tumors/rat) [1]: 4.26 ± 2.51 no. tumors/rat
- significance of treatment results (in words) [1]: insignificant

Structure (SMILES): C[C@]12CC[C@@H]3c4cc([N+](=O)[O-])c(O)c([N+](=O)[O-])c4CC[C@H]3[C@@H]1CCC2=O [2,4-Dinitroestrone, 2,4-dinitroestrone]
- Mean tumor volume [1]: 1.14 ± 1.37 cu cm
- Mean tumor no. (no. tumors/rat) [1]: 2.90 ± 1.67 no. tumors/rat
- significance of treatment results (in words) [1]: insignificant

Structure (SMILES): C[C@]12CC[C@@H]3c4cccc([N+](=O)[O-])c4CC[C@H]3[C@@H]1CC[C@@H]2O [4-Nitroestra-1,3,5(10)-trien-17-beta-ol]
- estrogen sulfotransferase inhibitory activity (in words) [2]: most active compound
- growth of MXT mouse mammary ductal carcinoma (in words) ([3]; mouse, in vivo): inhibited the growth of MXT mouse mammary ductal carcinoma; also recorded: shown to inhibit the growth of murine MXT mammary ductal carcinoma
- T/C Value Day 39 (%) ([3]; s.c. 200 mg/kg, QD 1-19): 8.2%
- Time for Median Tumor to Reach 500 mg ([3]; s.c. 200 mg/kg, QD 1-19, control 18): 45

Structure (SMILES): COc1ccc2c(c1[N+](=O)[O-])CC[C@@H]1[C@@H]2CC[C@]2(C)C(=O)CC[C@@H]12 [4-Nitroestrone 3-methyl ether, 4-Nitroestrone 3-Methyl Ether]
- growth of hormone dependent mammary tumors (in words) ([4]; DMBA-induced): found to inhibit the growth of hormone dependent mammary tumors
- route of administration to which utility is limited (in words) ([4]; particularly intraperitoneal or subcutaneous injection): essentially limited to parental administration
- Mean tumor volume [1]: 0.05 ± 0.05 cu cm
- Mean tumor no. (no. tumors/rat) [1]: 1.35 ± 0.40 no. tumors/rat

Structure (SMILES): C[C@]12CC[C@@H]3c4ccc(O)c([N+](=O)[O-])c4CC[C@H]3[C@@H]1CCC2=O [4-Nitroestrone, 4-nitroestrone]
- Mean tumor volume [1]: 0.75 ± 0.10 cu cm
- Mean tumor no. (no. tumors/rat) [1]: 1.95 ± 2.60 no. tumors/rat
- significance of treatment results (in words) [1]: insignificant
